Assay results as given in article PMC9969401, “Discovery of 2-(3-Benzamidopropanamido)thiazole-5-carboxylate Inhibitors of the Kinesin HSET (KIFC1) and the Development of Cellular Target Engagement Probes” (Journal of Medicinal Chemistry, 2023).

Key:
[1] = tested on: centrosome-amplified (4NCA) DLD1 cells; assay: Multipolar spindle assay (4NCA cell line); assay type: cell-based, human
Excerpt: The cellular models consisted of chromosomally stable human colon cancer DLD1 diploid (2N) and tetraploid (4N) cells, along with tetraploid centrosome -amplified (4NCA) DLD1 cells and DLD1 HSET knockout (KO) cells. DLD1 2N and 4N cells were generated and characterized as previously described.[27],[41],[42] In order to generate 4NCA cells, we used dihydro-cytochalasin B (DCB) to transiently block cytokinesis and induce tetraploidisation and centrosome amplification in DLD1 cells. Centrosome amplification in 4NCA cells is transient and therefore they were generated from 2N cells for each run of the assay.[27] The DLD1 HSET KO cells were knockout clones generated by CRISPR and validated by sequencing to have a homozygous deletion in the KIFC1 gene.
(§1) Inhibition of HSET-mediated clustering was measured using a phenotypic assay measuring the formation of multipolar metaphase spindles in DLD1 cells with (4NCA) or without (4N) centrosome amplification. 4NCA cells were generated by treating 2N DLD1 cells with 2 μΜ DCB for 24 h, washed, and released in growth media for 24 h. 4N and 4NCA DLD1 cells were plated in 96-well ibidi μ-Clear plates (IB-89626, ibidi) with a no. 1.5 polymer coverslip bottom with optimal imaging properties. To enrich the mitotic population, cells were first treated for 3.5 h with 8 μM pro-TAME (I-440-01M, R&D system), an inhibitor of APC/C that transiently arrests cells in metaphase without affecting the structure of the spindle. Following the initial arrest, cells were treated with HSET compounds in the presence of 8 μM MG-132 (S2619, SelleckChem), a proteasome inhibitor that helps to maintain the metaphase arrest, where the number of spindle poles/cell can be optimally quantified by an automated segmentation analysis.
(§2) Cells were then fixed in methanol and stained for 3 h for mitotic pole marker aurora A (1:1000 610939 mouse anti-IAK1, BD Biosciences) and phosphorylated histone H3 (1:1500 ab47297 anti-histone H3 pS10, Abcam) as a marker of mitotic cells in 1.5% FBS in PBS. Following primary antibody treatment, cells were incubated with secondary antibodies Alexa Fluor 488 goat antimouse and Alexa Fluor 555 goat antirabbit (1:1500, A11029 and A21429, respectively, Life Technologies) together with 1 μg/mL DAPI (D9542, Sigma) in 1.5% FBS in PBS. Image acquisition was performed at 10× using the GE INCELL 2200 High Content Imaging System (Cytiva) and analyzed using the InCell Investigator software. Mitotic cells were identified by high pHH3 staining and were scored as multipolar if they had more than two mitotic spindle poles. The percentage of multipolar mitoses was calculated by dividing the number of multipolar mitoses by the total of all visible mitoses in one well of a 96-well plate (n > 100 for each replicate, two replicates per concentration point).

[2] = tested on: DLD1 cells (4NCA and 4N); assay type: cell-based; details: human
Protocol: as §1, §2
3. […]

[3] = biological target: T1, GST-tagged Eg5 motor domain (Homo sapiens, UniProt P52732); assay: ADP-Glo Eg5 assay (4.8 μM ATP); assay type: biochemical; details: preformed microtubules, 4.8 μM ATP (Table 4)
T1 construct: 4 nM GST-tagged Eg5 motor domain protein (Cytoskeleton, EG01); purchased Cytoskeleton EG01
T1 sequence (P52732 18-359 limits assumed): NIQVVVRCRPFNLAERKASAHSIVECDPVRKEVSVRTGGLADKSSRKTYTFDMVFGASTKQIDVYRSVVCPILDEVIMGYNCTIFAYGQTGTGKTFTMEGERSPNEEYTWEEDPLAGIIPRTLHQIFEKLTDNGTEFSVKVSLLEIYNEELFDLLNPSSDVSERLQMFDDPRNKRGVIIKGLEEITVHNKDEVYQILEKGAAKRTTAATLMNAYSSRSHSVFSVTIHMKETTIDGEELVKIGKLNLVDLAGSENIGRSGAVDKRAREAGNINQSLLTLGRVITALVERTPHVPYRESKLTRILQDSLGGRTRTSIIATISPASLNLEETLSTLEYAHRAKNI
Protocol: The HSET or Eg5 ATPase activity was measured using the ADP-Glo Kinase Assay kit (Promega, V9102). The assays were run using final concentrations of 5 nM full-length human N-terminal His-tag HSET or 4 nM GST-tagged Eg5 motor domain protein (Cytoskeleton, EG01) and an assay buffer containing 20 mM HEPES pH 6.8, 10 mM MgCl2, 0.25 mM EGTA, 0.4 mM Triton X-100, and 1 mM DTT. Preformed microtubules (Universal Biologicals Cambridge, bovine MT001-XL, or porcine MT002-XL), which were reconstituted in 15 mM PIPES pH 7, 1 mM MgCl2, and 20 μM paclitaxel, were present at a final assay concentration of 70 μg/mL. A reaction volume of 5 μL was used in Proxiplate 384 plus white assay plates (PerkinElmer, 6008280). To measure compound inhibition, 100 nL of compound dissolved in DMSO or DMSO alone was preincubated with the HSET and microtubules for 10 min before 3 μM Ultra-Pure ATP was added to start the ATPase reaction for the 3 μM ATP HSET assay. For the 500 μM ATP HSET assay, the addition of 500 μM Ultra-Pure ATP was used. For the Eg5 ATPase assay, 4.8 μM Ultra-Pure ATP was used. All reactions were incubated at 25 °C for 80 min and then stopped by the addition of 5 μL of the ADP-Glo reagent. 10 μL of Kinase Detection Reagent was then added after a further 45 min of incubation. The luminescence was read after 45 min on a PheraStar FSX plate reader (BMG Labtech). The data processing was performed using Dotmatics Studies software package. Percentage inhibition was determined based on normalization to high controls (0% inhibition, all reagents with 100 nL of DMSO alone) and low controls (100% inhibition […], without HSET). The IC50 values for each compound were determined using a four-parameter logistic curve fit of % inhibition versus concentration.

[4] = 15 μM, 4NCA DLD1 cells (Table 4)
[5] = 15 µM, 4NCA cells, supplementary CSV

SMILES: CCCOC(=O)c1sc(NC(=O)CCNC(=O)c2cccc(-c3noc(C)n3)c2)nc1C [Compound 32, Propyl 4-Methyl-2-(3-(3-(5-methyl-1,2,4-oxadiazol-3-yl)benzamido)propanamido)thiazole-5-carboxylate]
- % multipolarity above baseline @ 15 μM (4NCA cells) [1, 4]: 21%
- % multipolarity above baseline @ 15 μM (4NCA cells) [1, 5]: 21%
- increase in mitotic spindle multipolarity (4NCA) ([1]; 15 μM, centrosome-amplified (4NCA) DLD1 cell line): 21%
- concentration at which cellular toxicity observed [2]: > 15 µM
- IC50 [3]: > 200 µM

SMILES: CCCOC(=O)c1sc(NC(=O)C[C@H](CCCNC)NC(=O)c2cccc(-c3noc(C)n3)c2)nc1C [Compound 35, Propyl (S)-4-Methyl-2-(3-(3-(5-methyl-1,2,4-oxadiazol-3-yl)benzamido)-6-(methylamino)hexanamido)thiazole-5-carboxylate]
- % multipolarity above baseline @ 15 μM (4NCA cells) [1, 4]: 11%
- % multipolarity above baseline @ 15 μM (4NCA cells) [1, 5]: 11%
- concentration at which cellular toxicity observed [2]: 60 µM
- IC50 [3]: > 200 µM

SMILES: CCCOC(=O)c1sc(NC(=O)C[C@H](CCCN(C)C)NC(=O)c2cccc(-c3noc(C)n3)c2)nc1C [Compound 36, Propyl (S)-2-(6-(Dimethylamino)-3-(3-(5-methyl-1,2,4-oxadiazol-3-yl)benzamido)hexanamido)-4-methylthiazole-5-carboxylate]
- % multipolarity above baseline @ 15 μM (4NCA cells) [1, 4]: 15%
- % multipolarity above baseline @ 15 μM (4NCA cells) [1, 5]: 15%
- IC50 [3]: > 200 µM
